Calls of active or inactive are those of the source.
How the values were obtained:
Estrogen receptor = molecular target: T1, Estrogen receptor (Homo sapiens, UniProt P03372);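 note: potency for inhibiting coactivator peptide recruitment to the receptor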
T1 sequence (P03372 whole entry): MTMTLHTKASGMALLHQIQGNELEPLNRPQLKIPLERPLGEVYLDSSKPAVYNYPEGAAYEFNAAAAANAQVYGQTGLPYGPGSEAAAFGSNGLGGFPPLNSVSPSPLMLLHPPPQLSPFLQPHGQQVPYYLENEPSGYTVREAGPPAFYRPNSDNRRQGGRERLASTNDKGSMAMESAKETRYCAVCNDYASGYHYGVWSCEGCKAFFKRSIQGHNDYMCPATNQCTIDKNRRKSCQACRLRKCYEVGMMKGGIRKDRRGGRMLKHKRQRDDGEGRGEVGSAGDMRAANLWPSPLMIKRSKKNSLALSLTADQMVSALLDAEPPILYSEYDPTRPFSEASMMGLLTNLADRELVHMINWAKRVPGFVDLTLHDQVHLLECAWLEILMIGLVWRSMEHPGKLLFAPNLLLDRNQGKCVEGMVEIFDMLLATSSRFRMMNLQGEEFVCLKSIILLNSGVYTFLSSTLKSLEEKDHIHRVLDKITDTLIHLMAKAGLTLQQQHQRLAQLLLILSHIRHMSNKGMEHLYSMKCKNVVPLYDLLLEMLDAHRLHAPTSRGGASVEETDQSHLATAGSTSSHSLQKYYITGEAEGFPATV

Cytochrome P450 1A2 = molecular target: T2, Cytochrome P450 1A2 (Homo sapiens, UniProt P05177);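 note: PubChem cytochrome P450 panel assay, CYP1A2 panel member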
T2 sequence (P05177 whole entry): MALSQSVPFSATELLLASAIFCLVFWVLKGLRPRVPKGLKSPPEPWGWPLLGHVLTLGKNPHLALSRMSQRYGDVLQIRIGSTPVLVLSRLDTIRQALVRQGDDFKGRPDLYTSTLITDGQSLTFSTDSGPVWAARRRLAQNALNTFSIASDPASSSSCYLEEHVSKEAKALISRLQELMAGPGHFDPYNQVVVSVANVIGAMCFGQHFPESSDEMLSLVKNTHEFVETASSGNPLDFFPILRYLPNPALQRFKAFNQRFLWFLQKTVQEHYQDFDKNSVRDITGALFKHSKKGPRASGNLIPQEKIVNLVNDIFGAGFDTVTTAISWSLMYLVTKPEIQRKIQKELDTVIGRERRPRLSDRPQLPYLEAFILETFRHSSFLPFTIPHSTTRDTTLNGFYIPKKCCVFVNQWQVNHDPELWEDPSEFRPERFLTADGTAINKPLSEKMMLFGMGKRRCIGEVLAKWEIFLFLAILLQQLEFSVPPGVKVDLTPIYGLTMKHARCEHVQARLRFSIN

Cytochrome P450 3A4 = Cytochrome P450 3A4 (Homo sapiens, UniProt P08684);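 note: CYP3A4 tested as one member of a cytochrome P450 panel screen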
Cytochrome P450 2C9 = Cytochrome P450 2C9 (Homo sapiens, UniProt P11712)
[1] = Luminescence Cell-Based Dose Confirmation HTS to Identify Activators of 5'UTR Stem-Loop Driven Alpha-Synuclein mRNA Translation in H4 Neuroglioblastoma Cells. [Related pubchem assays: 1829 (Project Summary), 1814 (Primary HTS)]; format: functional
[2] = Luminescence Cell-Based Dose Response HTS to Identify Activators of Luciferase Translation or Activity in H4 […] Cells. [Related pubchem assays: 1829 (Project Summary), 1814 (Primary HTS)]; format: functional
H4 = assay: Luminescence Cell-Based Dose Response HTS to Identify Activators of 5'UTR Stem-Loop Driven Prion Protein mRNA Translation in H4 Neuroglioblastoma Cells. [Related pubchem assays: 1829 (Project Summary), 1814 (Primary HTS)]; format: functional; details: Homo sapiens
Protein Tat = Protein Tat (Human immunodeficiency virus type 1 group M subtype B (isolate HXB2)(HIV-1), UniProt P04608); format: functional;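 note: tat binding to TAR RNA read out by fluorescence polarization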
[3] = viability inhibitors of stage V gametocytes – luminescence, dose response (AID 1117278); format: functional, cell-based;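 note: gametocytes exposed to compound for 24 hours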
[4] = viability loss in human Jurkat cells – cell-based, luminescence, cytotoxicity control for P. falciparum gametocyte viability project, dose response (AID 1117277); format: functional;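 note: potency reflects loss of cellular ATP meaning fewer viable cells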
Estrogen receptor beta = Estrogen receptor beta (Homo sapiens, UniProt Q92731); assay: blockers of SRC-3 recruitment to ERβ – biochemical, ELISA, streptavidin-HRP readout, orthogonal assay, confirmation (AID 1060)
[5] = molecular target: Calpain-2 catalytic subunit (Sus scrofa, UniProt P43367); assay: m-calpain protease blockers, concentration series – biochemical, fluorogenic peptide substrate, dose response (AID 1420); format: functional
[6] = Trypanosoma cruzi growth suppression in host cells – NIH3T3 host cells, beta-gal luminescence, confirmation (AID 2044); format: functional, cell-based;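 note: intracellular parasites grown in NIH/3T3 mouse fibroblasts as host cells; luminescent beta-galactosidase reporter signal from transgenic T. cruzi replicating inside host cells; inhibitors lower the luminescence signal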
[7] = NIH3T3 cell viability loss – ATP luminescence, mouse fibroblasts, counter-screen, dose response (AID 2010); format: functional, cell-based;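 note: cells exposed to compound for about 90 hours before reading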

Calpain-2 catalytic subunit, sequence (P43367 whole entry): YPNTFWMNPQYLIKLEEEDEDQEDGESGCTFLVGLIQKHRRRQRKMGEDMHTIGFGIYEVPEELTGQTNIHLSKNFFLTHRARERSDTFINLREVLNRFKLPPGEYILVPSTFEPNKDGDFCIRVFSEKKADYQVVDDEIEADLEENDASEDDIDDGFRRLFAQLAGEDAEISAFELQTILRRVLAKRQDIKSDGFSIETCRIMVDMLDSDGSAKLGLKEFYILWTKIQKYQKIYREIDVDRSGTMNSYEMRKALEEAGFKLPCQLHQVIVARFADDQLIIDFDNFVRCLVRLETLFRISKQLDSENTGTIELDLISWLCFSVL
Estrogen receptor beta, sequence (Q92731 whole entry): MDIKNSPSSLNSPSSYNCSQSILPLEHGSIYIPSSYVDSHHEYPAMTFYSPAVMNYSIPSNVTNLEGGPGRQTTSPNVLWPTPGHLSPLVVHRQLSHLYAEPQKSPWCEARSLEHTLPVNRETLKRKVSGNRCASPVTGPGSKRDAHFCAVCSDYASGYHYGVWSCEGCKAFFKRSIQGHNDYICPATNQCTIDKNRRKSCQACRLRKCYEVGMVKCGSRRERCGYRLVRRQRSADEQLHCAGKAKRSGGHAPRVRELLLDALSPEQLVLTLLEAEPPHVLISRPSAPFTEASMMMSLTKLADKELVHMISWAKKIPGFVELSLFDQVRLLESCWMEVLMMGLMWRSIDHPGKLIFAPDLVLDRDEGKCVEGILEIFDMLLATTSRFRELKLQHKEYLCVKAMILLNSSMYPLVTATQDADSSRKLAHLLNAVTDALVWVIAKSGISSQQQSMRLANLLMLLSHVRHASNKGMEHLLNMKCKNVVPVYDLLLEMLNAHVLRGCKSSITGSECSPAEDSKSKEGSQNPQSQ
Cytochrome P450 2C9, sequence (P11712 whole entry): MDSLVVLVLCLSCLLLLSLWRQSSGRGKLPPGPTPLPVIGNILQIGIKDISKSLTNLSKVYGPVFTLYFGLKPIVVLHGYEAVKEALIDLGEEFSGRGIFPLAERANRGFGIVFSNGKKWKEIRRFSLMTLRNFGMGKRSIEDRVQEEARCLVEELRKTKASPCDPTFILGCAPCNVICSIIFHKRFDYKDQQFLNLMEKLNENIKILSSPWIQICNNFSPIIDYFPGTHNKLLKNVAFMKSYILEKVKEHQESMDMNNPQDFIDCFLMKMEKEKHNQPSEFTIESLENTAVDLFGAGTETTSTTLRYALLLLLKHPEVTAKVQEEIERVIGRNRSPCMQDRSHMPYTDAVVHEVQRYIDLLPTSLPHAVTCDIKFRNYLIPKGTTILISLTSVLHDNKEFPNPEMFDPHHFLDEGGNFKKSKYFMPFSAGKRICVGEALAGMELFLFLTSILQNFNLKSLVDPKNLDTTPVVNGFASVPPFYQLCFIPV
Protein Tat, sequence (P04608 whole entry): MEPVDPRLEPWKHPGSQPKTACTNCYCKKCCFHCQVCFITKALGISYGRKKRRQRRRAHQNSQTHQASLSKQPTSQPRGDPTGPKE
Cytochrome P450 3A4, sequence (P08684 whole entry): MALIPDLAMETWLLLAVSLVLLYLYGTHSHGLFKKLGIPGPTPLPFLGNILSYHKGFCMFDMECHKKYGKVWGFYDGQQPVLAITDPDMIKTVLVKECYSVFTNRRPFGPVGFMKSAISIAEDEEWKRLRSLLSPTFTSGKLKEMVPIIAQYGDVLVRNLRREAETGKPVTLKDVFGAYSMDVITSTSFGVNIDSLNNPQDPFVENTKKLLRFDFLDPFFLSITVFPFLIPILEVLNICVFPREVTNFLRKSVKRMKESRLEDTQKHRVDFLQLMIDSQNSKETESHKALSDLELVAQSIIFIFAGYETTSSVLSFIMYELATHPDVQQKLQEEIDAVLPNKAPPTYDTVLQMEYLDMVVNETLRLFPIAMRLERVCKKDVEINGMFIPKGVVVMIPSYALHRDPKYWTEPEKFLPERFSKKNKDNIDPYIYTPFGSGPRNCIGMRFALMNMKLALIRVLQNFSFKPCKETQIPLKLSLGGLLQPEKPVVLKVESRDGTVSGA

Which IC50 (Estrogen receptor) does the source give for `Cc1cc(C)n(CC(O)COc2ccccc2)n1` (centres undefined) here?
The IC50 was > 50 µM (not active).

What about the AC50 (Cytochrome P450 1A2) of the same molecule?
Its AC50 is 15.8 µM (inconclusive).

And the AC50 (Cytochrome P450 3A4)?
Its AC50 is 15.8 µM (inconclusive).

What about the AC50 (Cytochrome P450 2C9) of the same molecule?
The AC50 was 0.0355 µM (inconclusive).

For `Cc1ccc2nc3c(cc2c1)CC1(C(=O)N(C)C(=O)N(C)C1=O)C1CCCCN31` (centres undefined), which EC50 [1] is on record?
The EC50 was 35.6 µM (active).

And the EC50 [2]?
The EC50 was 73.9 µM (active).

And the EC50 (H4)?
The EC50 was 12 µM (active).

And the IC50 (Protein Tat)?
Its IC50 is > 100 µM (active).

Which IC50 [3] does the source give for `O=C(NCCCN1CCC(Cc2ccccc2)CC1)C1CCN(S(=O)(=O)N2CCC3(CC2)OCCO3)CC1` here?
The IC50 was > 109 µM (inactive).

What about the IC50 [4] of the same molecule?
The IC50 was > 83.3 µM (inactive).

Which IC50 (Estrogen receptor) does the source give for `COc1cccc(/C=C2\N=C(c3c(-c4ccccc4)noc3C)OC2=O)c1OC` here?
Its IC50 is > 50 µM (not active).

Which IC50 (Estrogen receptor beta) does the source give for `CC1CCCCN1CC(=O)Nc1sc2c(c1C#N)CCCC2` (centres undefined) here?
Its IC50 is 0.0301 µM (not active).

Which IC50 [3] does the source give for `CCN(CC)S(=O)(=O)c1ccc(Cl)c(NC(=O)COC(=O)c2cccn2C)c1` here?
The IC50 was > 109 µM (inactive).

What about the IC50 [4] of the same molecule?
The IC50 was > 83.3 µM (inactive).

With `Cc1ccc2nc(NC(=O)CN(C)S(=O)(=O)c3cccc4nsnc34)sc2c1` as the molecule, how does the IC50 [5] read?
Its IC50 is > 50 µM (not active).

For `CN(C)CCCNc1ccc(-c2nn(C)c(=O)c3ccccc23)cc1[N+](=O)[O-]`, which EC50 [6] is on record?
Its EC50 is < 0.1 µM (active).

What about the EC50 [7] of the same molecule?
Its EC50 is > 60 µM (not active).

And the EC50 (cells)?
The EC50 was 0.135 µM (active).

With `Cc1cccc(OCc2nnc(S)n2C2CCCCC2)c1` as the molecule, how does the IC50 [5] read?
The IC50 was 15 µM (not active).

Source: ChEMBL document CHEMBL1201862, “PubChem BioAssay data set” (2004)
